Results taken from patent publication US20110039762A1, “TARGETED ANTIMICROBIAL MOIETIES” (C3 JIAN, INC., priority 2009, published 2011).
“Also recorded” adds a separate entry of the source. Ends that are not written are not given here.

Legend:
[1] = test system: C. jejuni; assay: Kill or inhibit growth/proliferation; morphology, biofilm and growth disruption (Tables 5, 6); assay type: cell-based, Campylobacter jejuni; set-up: key: A: Peptide aggregates; B: Less hyphal formation; Clumps; Diffuse clumps and small polyps; F: Diffuse growth; H: Thin; I: Growth inhibition; Microcolony formation; Rippled; Small polyps; Thick; W: Halo formation on top, microlonies on bottom; also: test concentration or dose not given here
[2] = test system: S. epidermidis; assay: as above; assay type: cell-based, Staphylococcus epidermidis; set-up: key: A: Peptide aggregates; B: Less hyphal formation; Clumps; Diffuse clumps and small polyps; F: Diffuse growth; H: Thin; I: Growth inhibition; Microcolony formation; Rippled; Small polyps; Thick; W: Halo formation on top, microlonies on bottom; also: test concentration or dose not given here
[3] = test system: microorganisms (e.g., bacteria, yeasts, fungi); assay: Targeting peptide binding to target microorganisms (Table 3); conditions: preferably 1x PBS; for Target(s) (microorganisms bound by the targeting peptide): peptide binding in aqueous buffers varied by peptide solubility
[4] = test system: microorganisms; assay: Peptides having multiple activities (targeting/binding, antimicrobial, growth or phenotype altering)
Excerpt: In certain embodiments, peptides described herein can have multiple activities. Thus for example, a peptide can have both binding/targeting activity and antimicrobial activity. Such peptides can be used, e.g., in a chimeric construct, for any or all of these properties. Thus, for example, a peptide designated “B” in Table 8 can be used as a targeting peptide. If it is also designated G or M it can also be used for antimicrobial activity.

[5] = test system: C. albicans; assay: Kill or inhibit growth/proliferation; morphology, biofilm and growth disruption (Tables 5, 6); assay type: cell-based, Candida albicans; set-up: key: A: Peptide aggregates; B: Less hyphal formation; Clumps; Diffuse clumps and small polyps; F: Diffuse growth; H: Thin; I: Growth inhibition; Microcolony formation; Rippled; Small polyps; Thick; W: Halo formation on top, microlonies on bottom; also: test concentration or dose not given here
[6] = test system: E. coli; assay: as above; assay type: cell-based, Escherichia coli; set-up: key: A: Peptide aggregates; B: Less hyphal formation; Clumps; Diffuse clumps and small polyps; F: Diffuse growth; H: Thin; I: Growth inhibition; Microcolony formation; Rippled; Small polyps; Thick; W: Halo formation on top, microlonies on bottom; also: test concentration or dose not given here
[7] = test system: MRSA; assay: as above; assay type: cell-based, Methicillin-resistant Staphylococcus aureus; set-up: key: A: Peptide aggregates; B: Less hyphal formation; Clumps; Diffuse clumps and small polyps; F: Diffuse growth; H: Thin; I: Growth inhibition; Microcolony formation; Rippled; Small polyps; Thick; W: Halo formation on top, microlonies on bottom; also: test concentration or dose not given here
[8] = test system: E. faecalis; assay: as above; assay type: cell-based, Enterococcus faecalis; set-up: key: A: Peptide aggregates; B: Less hyphal formation; Clumps; Diffuse clumps and small polyps; F: Diffuse growth; H: Thin; I: Growth inhibition; Microcolony formation; Rippled; Small polyps; Thick; W: Halo formation on top, microlonies on bottom; also: test concentration or dose not given here
[9] = test system: S. pneumoniae; assay: as above; assay type: cell-based, Streptococcus pneumoniae; set-up: key: A: Peptide aggregates; B: Less hyphal formation; Clumps; Diffuse clumps and small polyps; F: Diffuse growth; H: Thin; I: Growth inhibition; Microcolony formation; Rippled; Small polyps; Thick; W: Halo formation on top, microlonies on bottom; also: test concentration or dose not given here
[10] = test system: S. mutans; assay: as above; assay type: cell-based, Streptococcus mutans; set-up: key: A: Peptide aggregates; B: Less hyphal formation; Clumps; Diffuse clumps and small polyps; F: Diffuse growth; H: Thin; I: Growth inhibition; Microcolony formation; Rippled; Small polyps; Thick; W: Halo formation on top, microlonies on bottom; also: test concentration or dose not given here
[11] = test system: C. jeikeium; assay: as above; assay type: cell-based, Corynebacterium jeikeium; set-up: key: A: Peptide aggregates; B: Less hyphal formation; Clumps; Diffuse clumps and small polyps; F: Diffuse growth; H: Thin; I: Growth inhibition; Microcolony formation; Rippled; Small polyps; Thick; W: Halo formation on top, microlonies on bottom; also: test concentration or dose not given here
[12] = test system: B. subtilis; assay: as above; assay type: cell-based, Bacillus subtilis; set-up: key: A: Peptide aggregates; B: Less hyphal formation; Clumps; Diffuse clumps and small polyps; F: Diffuse growth; H: Thin; I: Growth inhibition; Microcolony formation; Rippled; Small polyps; Thick; W: Halo formation on top, microlonies on bottom; also: test concentration or dose not given here
[13] = test system: M. luteus; assay: as above; assay type: cell-based, Micrococcus luteus; set-up: key: A: Peptide aggregates; B: Less hyphal formation; Clumps; Diffuse clumps and small polyps; F: Diffuse growth; H: Thin; I: Growth inhibition; Microcolony formation; Rippled; Small polyps; Thick; W: Halo formation on top, microlonies on bottom; also: test concentration or dose not given here
[14] = microorganism(s) the targeting peptide binds, peptide binding conducted in aqueous buffers varied by peptide solubility

“PF-426: peptide having multiple activities (MLQKYTQMISVTKCIITKNKKTQENVDAYN; Peptide with targeting and/or antimicrobial activity)” was tested, and the “Organism, effect” value [1] was “C. jejuni (D)”, the “Organism, effect” value [2] was “S. epidermidis (D)” and the “Target(s)” value [3, 14] was “S. epidermidis and E. coli and P. aeruginosa and C. albicans and MRSA and S. pneumoniae and E. faecalis and C. jeikeium”. The Activities [4] was “G B”, the “Organism, effect” value [5] was “C. albicans (A)” and the “Organism, effect” value [6] was “E. coli (C)”. The “Organism, effect” value [7] was “MRSA (D)”, the “Organism, effect” value [8] was “E. faecalis (D)” and the “Organism, effect” value [9] was “S. pneumoniae (D)”.
In the case of “PF-526: peptide having multiple activities (chain 1 VLLLFIFQPFQKQLL-NH2; chain 2 VLLLFIFQPFQKQLL-NH2)”, the “Organism, effect” value [2] is reported as “S. epidermidis (C)”, the Activities [4] is reported as “G B” and the “Organism, effect” value [5] is reported as “C. albicans (C)”. For the same substance, the “Organism, effect” value [6] was “E. coli (R)”, the “Organism, effect” value [7] was “MRSA (C)” and the “Organism, effect” value [9] was “S. pneumoniae (R)”.
For KKFKIFVIINWFYHKYIILNFEENF [PF-C085], the “Organism, effect (morphology, biofilm and growth disruption)” value [10] was “S. mutans (F)”, the “Target(s) (microorganisms bound by the targeting peptide)” value [3] was “A. naeslundii; also recorded: F. nucleatum; also recorded: P. gingivalis; also recorded: S. mutans; also recorded: T. denticola” and the Activities [4] was “G B”.
With “PF-632: peptide having multiple activities (chain 1 TTIQGVASLEKHGFRYTIIYPTRI; chain 2 TTIQGVASLEKHGFRYTIIYPTRI; Peptide with targeting and/or antimicrobial activity)” the “Organism, effect” value [11] was “C. jeikeium (D)”, the “Organism, effect” value [2] was “S. epidermidis (D)” and the “Target(s) (microorganisms bound by the targeting peptide)” value [3] was “S. epidermidis and P. aeruginosa and C. albicans and MRSA and S. pneumoniae and E. faecalis and C. jeikeium”. For the same substance, the Activities [4] was “G B”, the “Organism, effect” value [5] was “C. albicans (B)” and the “Organism, effect” value [12] was “B. subtilis (H)”. The “Organism, effect” value [7] was “MRSA (D)”, the “Organism, effect” value [8] was “E. faecalis (D)” and the “Organism, effect” value [9] was “S. pneumoniae (M)”.
“PF-C057: peptide having multiple activities (YFWWYWVQDCIPYKNNEVWLELSNNMK; Peptide with targeting and/or antimicrobial activity)” was tested, and the “Organism, effect (morphology, biofilm and growth disruption)” value [10] was “S. mutans (I)”, the “Target(s) (microorganisms bound by the targeting peptide)” value [3] was “A. naeslundii; also recorded: F. nucleatum; also recorded: P. gingivalis; also recorded: S. mutans” and the Activities [4] was “G B”.
“PF-636: peptide having multiple activities (chain 1 LVRLA; chain 2 LVRLA; Peptide with targeting and/or antimicrobial activity)” was tested, and the “Target(s) (microorganisms bound by the targeting peptide)” value [3] was “S. epidermidis and C. albicans and MRSA and S. pneumoniae and E. faecalis”, the Activities [4] was “G B” and the “Organism, effect” value [5] was “C. albicans (B)”. For the same substance, the “Organism, effect” value [12] was “B. subtilis (H)”, the “Organism, effect” value [8] was “E. faecalis (H)” and the “Organism, effect” value [9] was “S. pneumoniae (H)”.
In the case of “PF-057: peptide having multiple activities (chain 1 TMIVISIPRFEEYMKARHKKWM; chain 2 TMIVISIPRFEEYMKARHKKWM; Peptide with targeting and/or antimicrobial activity)”, the “Organism, effect” value [1] is reported as “C. jejuni (D)”, the “Organism, effect” value [11] is reported as “C. jeikeium (A)” and the “Organism, effect” value [2] is reported as “S. epidermidis (D)”. The “Organism, effect” value [13] was “M. luteus (C)”, the Activities [4] was “G B” and the “Organism, effect” value [5] was “C. albicans (A)”. For the same substance, the “Organism, effect” value [6] was “E. coli (M)”, the “Organism, effect” value [7] was “MRSA (M)” and the “Organism, effect” value [8] was “E. faecalis (A)”. For the same substance, the “Organism, effect” value [9] was “S. pneumoniae (R)”.
In the case of “PF-528: peptide having multiple activities (chain 1 LVDVVVLIRRHLPKSCS-NH2; chain 2 LVDVVVLIRRHLPKSCS-NH2; cysteine pairing not given here)”, the “Organism, effect” value [2] is reported as “S. epidermidis (H)”, the “Target(s)” value [3, 14] is reported as “S. epidermidis and P. aeruginosa and C. albicans and MRSA and S. pneumoniae and E. faecalis” and the Activities [4] is reported as “G B”. For the same substance, the “Organism, effect” value [5] was “C. albicans (C)”, the “Organism, effect” value [6] was “E. coli (H)” and the “Organism, effect” value [7] was “MRSA (H)”. For the same substance, the “Organism, effect” value [9] was “S. pneumoniae (R)”.
With HCVIGNVVDIANLLKRRAVYRDIADVIKMR [PF-071] the “Organism, effect” value [1] was “C. jejuni (A)”, the “Organism, effect” value [2] was “S. epidermidis (R)” and the “Organism, effect” value [13] was “M. luteus (R)”. The “Target(s)” value ([3]; microorganism the targeting peptide binds, binding in aqueous buffers varied by peptide solubility) was “S. epidermidis and E. coli and P. aeruginosa and C. albicans and MRSA and S. pneumoniae and E. faecalis”, the Activities [4] was “G B” and the “Organism, effect” value [5] was “C. albicans (B)”. For the same substance, the “Organism, effect” value [12] was “B. subtilis (D)”, the “Organism, effect” value [7] was “MRSA (C)” and the “Organism, effect” value [9] was “S. pneumoniae (A)”.
“PF-C142: peptide having multiple activities (DFPPLSFFRRRFHAYTAPIDNFFGANPF; Peptide with targeting and/or antimicrobial activity)” was tested, and the “Organism, effect (morphology, biofilm and growth disruption)” value [10] was “S. mutans (I)”, the “Target(s) (microorganisms bound by the targeting peptide)” value [3] was “A. naeslundii; also recorded: F. nucleatum; also recorded: P. gingivalis; also recorded: S. mutans; also recorded: T. denticola” and the Activities [4] was “G B”.
With “PF-668 (chain 1 TNAESMALAFRGRVHMSVNIAGLT; chain 2 TNAESMALAFRGRVHMSVNIAGLT; Peptide with targeting and/or antimicrobial activity)” the “Organism, effect (morphology, biofilm and growth disruption)” value [11] was “C. jeikeium (D)”, the “Organism, effect (morphology, biofilm and growth disruption)” value [2] was “S. epidermidis (M)” and the “Target(s) (microorganisms bound by the targeting peptide)” value [3] was “Mycobacteria spp”. For the same substance, the “Organism, effect (morphology, biofilm and growth disruption)” value [5] was “C. albicans (A)”, the “Organism, effect (morphology, biofilm and growth disruption)” value [12] was “B. subtilis (A)” and the “Organism, effect (morphology, biofilm and growth disruption)” value [7] was “MRSA (R)”. For the same substance, the “Organism, effect (morphology, biofilm and growth disruption)” value [8] was “E. faecalis (D)” and the “Organism, effect (morphology, biofilm and growth disruption)” value [9] was “S. pneumoniae (M)”.
With “PF-686: peptide having multiple activities (chain 1 LAVLMGYIGYRGWSGKRHINRQ; chain 2 LAVLMGYIGYRGWSGKRHINRQ; Peptide with targeting and/or antimicrobial activity)” the “Organism, effect (morphology, biofilm and growth disruption)” value [2] was “S. epidermidis (H)”, the “Target(s) (microorganisms bound by the targeting peptide)” value [3] was “M. smegmatis” and the Activities [4] was “G B”. The “Organism, effect (morphology, biofilm and growth disruption)” value [5] was “C. albicans (B)”, the “Organism, effect (morphology, biofilm and growth disruption)” value [12] was “B. subtilis (I)” and the “Organism, effect (morphology, biofilm and growth disruption)” value [7] was “MRSA (M)”. For the same substance, the “Organism, effect (morphology, biofilm and growth disruption)” value [8] was “E. faecalis (R)” and the “Organism, effect (morphology, biofilm and growth disruption)” value [9] was “S. pneumoniae (A)”.
In the case of “PF-175: peptide having multiple activities (RRRPAGQRPEKASQAMIAA; Peptide with targeting and/or antimicrobial activity)”, the “Organism, effect” value [1] is reported as “C. jejuni (M)”, the “Organism, effect” value [13] is reported as “M. luteus (S)” and the “Target(s)” value ([3]; microorganism(s) the targeting peptide binds, binding in aqueous buffers depending on peptide solubility) is reported as “S. epidermidis; also recorded: E. faecalis”. For the same substance, the Activities [4] was “G B”, the “Organism, effect” value [5] was “C. albicans (B)” and the “Organism, effect” value [12] was “B. subtilis (D)”. For the same substance, the “Organism, effect” value [9] was “S. pneumoniae (A)”.
